Results published in the supplement of paper PMC10307832.

These cell lines were tested with Cc1ccc2nc(NCCN)c3ncc(C)n3c2c1 + CC1(C)CCC(c2ccc(Cl)cc2)=C(CN2CCN(c3ccc(C(=O)NS(=O)(=O)c4ccc(N[C@H](CCN5CCOCC5)CSc5ccccc5)c(S(=O)(=O)C(F)(F)F)c4)cc3)CC2)C1 [Navitoclax] (partner 0.5 µM) (assay: relative viability (nuclei count vs DMSO), 5 days (fraction); higher = more cells survive). Conditions: first compound 0.04 µM.
Outline: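 Relative viability equals treated-well nuclei counts divided by vehicle-well nuclei counts. Counts came from 4× images of lung cancer cell lines grown in 1536-well plates for 5 days after pin-tool dosing on the day after seeding. Dosing used one drug alone or a fixed anchor-drug dose plus five library-drug doses (not always all listed) in √10 steps, and values are medians of duplicate plates.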

Cell Line	relative viability
NCI-H2405	0.849
HOP-62	0.956
SK-MES-1	1.26
LU99A	0.784
BEN	0.0603
HARA	1.16
HCC-78	0.919
NCI-H322M	1.15
LCLC-97TM1	0.57
NCI-H2009	1.19
A-427	0.914
NCI-H441	0.56
NCI-H1734	0.818
NCI-H460	1.27
NCI-H2347	0.871
SK-LU-1	1.02

Cell Line	relative viability
NCI-H1395	1.27
201T	1.25
NCI-H1915	0.793
HCC-827	1.03
LXF-289	0.946
NCI-H23	0.867
NCI-H647	1.08
CAL-12T	1.26
NCI-H1651	1.02
EPLC-272H	1.01
NCI-H2228	0.794
NCI-H1355	0.909
NCI-H3122	1.03
NCI-H1437	1.08
NCI-H1755	1.04
NCI-H2023	1.05

Same assay, conditions: first compound 0.1265 µM

Cell Line	relative viability
NCI-H2405	0.905
HOP-62	1.05
SK-MES-1	1.33
LU99A	0.822
BEN	0.0647
HARA	1.15
HCC-78	0.8
NCI-H322M	1.16
LCLC-97TM1	0.444
NCI-H2009	1.08
A-427	0.864
NCI-H441	0.684
NCI-H1734	0.803
NCI-H460	1.08
NCI-H2347	0.723
SK-LU-1	0.898

Cell Line	relative viability
NCI-H1395	1.13
201T	1.22
HCC-827	0.969
LXF-289	0.909
NCI-H23	0.904
NCI-H647	1.06
CAL-12T	1.14
NCI-H1651	1.02
EPLC-272H	1.09
NCI-H2228	0.843
NCI-H1355	0.942
NCI-H3122	1.03
NCI-H1437	1.03
NCI-H1755	0.971
NCI-H2023	0.999

Same assay, conditions: first compound 0.4 µM

Cell Line	relative viability
NCI-H2405	0.936
HOP-62	0.859
SK-MES-1	1.14
LU99A	0.761
BEN	0.0665
HARA	1.14
HCC-78	0.778
NCI-H322M	1.19
LCLC-97TM1	0.39
NCI-H2009	1.17
A-427	0.946
NCI-H441	1.03
NCI-H1734	0.8
NCI-H460	1.1
NCI-H2347	0.715
SK-LU-1	0.812

Cell Line	relative viability
NCI-H1395	1.31
201T	1.14
NCI-H1915	0.781
HCC-827	1.03
LXF-289	0.936
NCI-H23	0.822
NCI-H647	1.17
CAL-12T	1.25
NCI-H1651	1.19
EPLC-272H	1.17
NCI-H2228	0.702
NCI-H1355	0.924
NCI-H3122	1.06
NCI-H1437	1.12
NCI-H1755	0.997
NCI-H2023	1.03

Same assay, conditions: first compound 1.265 µM

Cell Line	relative viability
NCI-H2405	0.718
HOP-62	1
SK-MES-1	1.13
LU99A	0.883
BEN	0.0492
HARA	1.08
HCC-78	0.757
NCI-H322M	1.25
LCLC-97TM1	0.392
NCI-H2009	1.17
A-427	1.02
NCI-H441	0.401
NCI-H1734	0.808
NCI-H460	1.22
NCI-H2347	0.787
SK-LU-1	0.769

Cell Line	relative viability
NCI-H1395	1
201T	1.17
NCI-H1915	0.774
HCC-827	1.05
LXF-289	0.922
NCI-H23	0.791
NCI-H647	0.804
CAL-12T	1.33
NCI-H1651	1.18
EPLC-272H	1.04
NCI-H2228	0.732
NCI-H1355	0.9
NCI-H3122	1
NCI-H1437	1.07
NCI-H1755	1.02
NCI-H2023	1.03

Same assay, conditions: first compound 4 µM

Cell Line	relative viability
NCI-H2405	0.725
HOP-62	0.954
SK-MES-1	1.17
LU99A	0.782
BEN	0.0759
HARA	1.21
HCC-78	0.689
NCI-H322M	1.22
LCLC-97TM1	0.487
NCI-H2009	1.09
A-427	0.968
NCI-H441	0.635
NCI-H1734	0.803
NCI-H460	1.06
NCI-H2347	0.677
SK-LU-1	0.778

Cell Line	relative viability
NCI-H1395	1.1
201T	1.23
NCI-H1915	0.766
HCC-827	0.984
LXF-289	0.952
NCI-H23	0.814
NCI-H647	0.908
CAL-12T	1.17
NCI-H1651	0.955
EPLC-272H	0.93
NCI-H2228	0.674
NCI-H1355	0.806
NCI-H3122	1.1
NCI-H1437	0.992
NCI-H1755	0.98
